Experiments:
rats [1] = tested on: rats; design: method as in PMID 9017001; details: cited from earlier work
dispersed Caco-2 cells = assay: Uptake of vitamin D from mixed micelles by dispersed Caco-2 cells; type: in vitro ADME, human; details: dispersed Caco-2 cells, 2 h
Excerpt: (§1) Since 2001, we have reported that lysophospholipids enhance the uptake of micellar carotenoids in Caco-2 cells. […] In the present study, using the same method, we examined whether the mechanism for the enhancing effect of lysophosphatidylcholine could be adapted to vitamin D, as well. To evaluate the impact of the degree of cell-cell adhesion/cell-matrix adhesion on vitamin D uptake by cells, we prepared in two different ways: i) dispersed Caco-2 cells without cell-cell adhesion/cell-matrix adhesion and ii) Caco-2 cells with insufficient cell-cell adhesion.
(i): The dispersed cells were prepared by trypsin treatment. After collecting the cells in the culture medium, the number of cells was counted and diluted with the medium. The cells were washed two times with FBS-free DMEM and then seeded in culture plate of 24-well for suspension cultures (SC plate; Greiner Bio-One, Frickenhausen, Germany) at a density of 15 × 10^4 cells per well containing the FBS-free DMEM (0.5 mL).
(§2) Subsequent operations are common to the two models of cells. The medium consisting of mixed micellar vitamin D (0.5 mL) was added to adhered cells or dispersed cells in individual wells containing FBS-free DMEM (0.5 mL), resulting in a total medium volume of 1.0 mL/well, and the final start concentrations of mixed micellar components were one-half the initial concentration. The cells were incubated in the same conditions as described above, i.e., in a CO2 incubator at 37 °C for 2 h, and then the cells were washed with 2 mM taurocholate/PBS, followed by two times with PBS. The vitamin D uptake and residual mixed micellar vitamin D were evaluated as the previous subsection, but the filtrate of residual mixed micellar vitamin D was diluted with a 2x-volume of H2O. The cellular protein content was also determined as above.

[2] = tested on: Caco-2 cells with insufficient cell-cell adhesion; assay: Uptake of vitamin D2 by adherent Caco-2 cells with insufficient cell-cell adhesion; type: in vitro ADME, human; details: 2-h incubation
Excerpt: as §1
(ii): The cells that had insufficient cell-cell adhesion were prepared by reducing the culture period from 20–22 d for full differentiation to <7 d after the seeding described above.
as §2

rats [3] = details: line test, vitamins D provided as a crystal; cited from earlier work
chicks = details: cited from earlier work
rats [4] = details: cited from earlier work

Vitamin-D2 uptake from lysoPC mixed micelles relative to that from NoPC mixed micelles (dispersed Caco-2 cells) | Structure (SMILES) | Activity for increasing the blood concentration of calcium relative to 1,25-di(OH)-vitamin D3 (rats [1]) | Vitamin D2 uptake, NoPC vs lysoPC mixed micelles ([2]; Caco-2 cells cultured for 3 d) | Vitamin D2 uptake, NoPC vs lysoPC mixed micelles ([2]; Caco-2 cells cultured for 5 d) | Vitamin D2 uptake, NoPC vs lysoPC mixed micelles ([2]; Caco-2 cells cultured for 7 d) | Anti-rickets activity, comparison of vitamins D (rats [3]) | Intestinal absorption compared with vitamin D3 or D4 (chicks) | Intestinal absorption compared with vitamin D3 (rats [4])
 | C=C1/C(=C\C=C2/CCC[C@]3(C)[C@@H]([C@H](C)CC[C@@H](CC)C(C)C)CC[C@@H]23)C[C@@H](O)C[C@@H]1O [1-OH-vitamin D5] | approximately one-sixth |  |  |  |  |  | 
approximately one-sixth | C=C1CC[C@H](O)C/C1=C/C=C1\CCC[C@]2(C)[C@@H]([C@H](C)/C=C/[C@H](C)C(C)C)CC[C@@H]12 [Vitamin D2] |  | significantly higher by cells cultured for 3 d from NoPC mixed micelles | no difference in the uptake amounts between NoPC mixed micelles and lysoPC mixed micelles | uptake from lysoPC mixed micelles were significantly higher than those from NoPC mixed micelles | highest activities and were similar | less absorbed than vitamin D3 | slightly more easily absorbed than vitamin D3

— article PMC8067314, “Uptake of Vitamins D2, D3, D4, D5, D6, and D7 Solubilized in Mixed Micelles by Human Intestinal Cells, Caco-2, an Enhancing Effect of Lysophosphatidylcholine on the Cellular Uptake, and Estimation of Vitamins D’ Biological Activities” (Nutrients, 2021)
